Patent publication US8772268B2, “Bisphosphonamidate prodrugs and uses thereof” (The Johns Hopkins University, priority 2010, dated 2014)
Like-named read-outs stand apart in the source and are kept apart here.

Legend:
[1] = system: A549 NSCLC cells; assay: Trypan blue cell count assay, A549; settings: for EC50: read-out: EC50 (decreased cell number by 50% compared to control), A549, trypan blue
Description: A549 NSCLC cells were plated at 1.7×10^4 cells per well in flat bottom 12-well plates. Cells were dosed as described above. At 24, 48 or 72 hours following drug treatment, the media was collected, and the cells were washed with 200 μL PBS. Each well was trypsinized with 200 μL trypsin for 3-5 min. The trypsin reaction was quenched with an equal volume of media. All supernatants and washes were combined and spun at 1,500 rpm for 5 min. Supernatant was decanted, and the cells were resuspended in 200 μL media. The cells were diluted 1:1 in 0.04% trypan blue and counted using a cytometer. The absolute number of cells was determined at each drug concentration. The cell number for each concentration was converted to percent of control for each time point, and plotted using GraphPad Prism 4.0. The EC50 was calculated as the concentration of drug that caused a 50% decrease in number of cells compared to control.
The number of viable cells at each dose was determined at 0, 24, 48 and 72 hours following drug treatment and plotted as a percent of control (FIG. 6A).

[2] = system: caspases 3/7; assay: Caspase Glo 3/7 assay; format: cell-based; settings: higher drug concentrations, by 48 hours
Description: Caspase Glo 3/7 (Promega) assay was used to determine caspases 3/7 activation following treatment of cells with clodronate prodrug. Briefly, cells were treated with clodronate prodrug for 24, 48, or 72 h. Caspase glo 3/7 (Promega) reagent ([…]) was added to each well at 24, 48 or 72 h. The cells were then incubated at room temperature for 1 h, and the luminescence of each well was determined using a luminometer.

[3] = system: HUVEC; assay: Sprouting assay on dextran beads (anti-angiogenic activity); format: cell-based
Description: This assay is an unpublished variation of the assay described (Microvascular Research 2003, 66, 102-112) performed by the Hans Hammers Lab at Johns Hopkins University. The assay described in the above reference is described below.
HUVEC were mixed with dextran-coated Cytodex 3 microcarriers (Amersham Pharmacia Biotech, Piscataway, N.J.) at a concentration of 400 HUVEC per bead in 1 ml of EGM-2 medium (Clonetics, Walkersville, Md.). Beads with cells were shaken gently every 20 min for 4 h at 37° C. and 5% CO2. After incubating, beads with cells were transferred to a 25-cm^2 tissue culture flask (BD Biosciences, Bedford, Mass.) and left for 12-16 h in 5 ml of EGM-2 at 37° C. and 5% CO2. The following day, beads with cells were washed three times with 1 ml of EGM-2 and resuspended at a concentration of 200 cell-coated beads/ml in 2.5 mg/ml of fibrinogen (Sigma, St. Louis, Mo.) with or without 0.15 units/ml of aprotinin (Sigma) at a pH of 7.4. Five hundred microliters of fibrinogen/bead solution was added to 0.625 units of thrombin (Sigma) in one well of a 24-well tissue culture plate. […] Bead assays were monitored for 7 days. […]

[4] = system: CCRF-CEM; assay: NCI-60 DTP Human Tumor Cell Line Screen; format: cell-based; settings: Leukemia, 48 h
[5] = system: K-562; assay: NCI-60 DTP Human Tumor Cell Line Screen; format: cell-based; settings: K-562, Leukemia, 48 h
[6] = system: NCI-H322M; assay: NCI-60 DTP Human Tumor Cell Line Screen; format: cell-based; settings: Non-Small Cell Lung Cancer, 48 h
[7] = system: NCI-H522; assay: NCI-60 DTP Human Tumor Cell Line Screen; format: cell-based; settings: NCI-H522, Non-Small Cell Lung Cancer, 48 h
[8] = system: KM12; assay: NCI-60 DTP Human Tumor Cell Line Screen; format: cell-based; settings: KM12, Colon Cancer, 48 h
[9] = system: SW-620; assay: NCI-60 DTP Human Tumor Cell Line Screen; format: cell-based; settings: SW-620, Colon Cancer, 48 h
[10] = system: SF-295; assay: NCI-60 DTP Human Tumor Cell Line Screen; format: cell-based; settings: SF-295, CNS Cancer, 48 h
[11] = system: MDA-MB-435; assay: NCI-60 DTP Human Tumor Cell Line Screen; format: cell-based; settings: MDA-MB-435, Melanoma, 48 h
[12] = system: SK-MEL-28; assay: NCI-60 DTP Human Tumor Cell Line Screen; format: cell-based; settings: SK-MEL-28, Melanoma, 48 h
[13] = system: 786-0; assay: NCI-60 DTP Human Tumor Cell Line Screen; format: cell-based; settings: 786-0, Renal Cancer, 48 h
[14] = system: UO-31; assay: NCI-60 DTP Human Tumor Cell Line Screen; format: cell-based; settings: UO-31, Renal Cancer, 48 h

With `CN(CCCCCl)P(=O)(OCc1ccc([N+](=O)[O-])cc1)C(Cl)(Cl)P(=O)(OCc1ccc([N+](=O)[O-])cc1)N(C)CCCCCl` (stereo not drawn) [compound 14] the “new growth in fresh media without drug” value ([1]; 72 h treatment with 30, 100 and 300 μM, then 48 h drug-free) was “No new growth was observed”, the “cell viability reduced by” value ([1]; A549, 24 h, highest drug concentration tested) was 57% and the “EC50 (trypan blue) fold higher than IC50 (MTS)” value ([1]; A549, 48 h) was ~1.6 fold. For the same compound, the “viability of A549 cells, of control” value ([1]; higher doses over 24 h) was “above 50%”, the EC50 ([1]; 48 h) was 19 ± 4 µM and the EC50 ([1]; 72 h) was 16 ± 1 µM. For the same compound, the “caspases 3/7 activation” value [2] was “Activation of caspases 3/7”, the sprouting ([3]; 6 μM) was “sprouting was delayed for the first few days” and the sprouting ([3]; 10 μM) was “sprouting is inhibited”. The Log10GI50 [4] was −5.50, the Log10LC50 [4] was >−4.00 and the Log10TGI [4] was >−4.00. The Log10GI50 [5] was −5.45, the Log10LC50 [5] was >−4.00 and the Log10TGI [5] was >−4.00. For the same compound, the Log10GI50 [6] was −5.34, the Log10LC50 [6] was >−4.00 and the Log10TGI [6] was >−4.00. The Log10GI50 [7] was −5.66, the Log10LC50 [7] was >−4.00 and the Log10TGI [7] was −5.11. For the same compound, the Log10GI50 [8] was −5.46, the Log10LC50 [8] was >−4.00 and the Log10TGI [8] was >−4.00. For the same compound, the Log10GI50 [9] was −5.27, the Log10LC50 [9] was >−4.00 and the Log10TGI [9] was >−4.00. The Log10GI50 [10] was −5.61, the Log10LC50 [10] was >−4.00 and the Log10TGI [10] was −4.77. The Log10GI50 [11] was −5.55, the Log10LC50 [11] was >−4.00 and the Log10TGI [11] was −4.65. The Log10GI50 [12] was −5.42, the Log10LC50 [12] was >−4.00 and the Log10TGI [12] was >−4.00. For the same compound, the Log10GI50 [13] was −5.28, the Log10LC50 [13] was >−4.00 and the Log10TGI [13] was >−4.00. For the same compound, the Log10GI50 [14] was −5.76, the Log10LC50 [14] was >−4.00 and the Log10TGI [14] was >−4.00.
